Experimental data as given in ChEMBL document CHEMBL1201862, “PubChem BioAssay data set” (2004).
The source made the active and inactive calls.

Legend:
Protein S100-A4 = Protein S100-A4 (Homo sapiens, UniProt P26447); assay: human S100A4 peptide interaction inhibition curves – biochemical, fluorescence polarization, cherry-picked hits, dose response (AID 687001); format: functional
[1] = molecular target: T1, Polyadenylate-binding protein 1 (Homo sapiens, UniProt P11940); assay: MLLE domain peptide-binding blockers, IC50 – biochemical, fluorescence polarization, FITC-PAM2 peptide, dose response (AID 602259); format: functional; settings: read-out: IC50_Mean
[2] = molecular target: T1, Polyadenylate-binding protein 1; assay: MLLE binding blockers, Cy5 peptide tracer – biochemical, fluorescence polarization, Cy5-PAM2 peptide, secondary, miRNA deadenylation inhibitor project, dose response (AID 602260); format: functional; settings: read-out: IC50_Mean
[3] = viability loss in HEK293 cells – cell-based, plate reader, cherry-picked samples, cytotoxicity control, dose response (AID 743446); format: functional
[4] = A549 cell cytotoxicity, dose response, cytotoxicity control, plate reader, cherry-pick, antagonist series (AID 743412); format: functional, cell-based
[5] = toxicity toward HepG2 liver cells – cell-based, plate reader, cherry-pick, antagonist series, cytotoxicity control, dose response (AID 743416); format: functional
[6] = HGIII-sPLA2 enzyme inhibition potency – biochemical, QFRET, IC50, dose response (AID 743457);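 further: green fluorescence rise as the enzyme cleaves BODIPY PC-A2 in liposomes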
INS1 = assay: INS-1E survival protection against cytokine death – cell-based, luminescence, retest, dose response (AID 449756); format: functional; settings: Rattus norvegicus;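 further: cell death triggered by IL-1 beta plus TNF-alpha plus IFN-gamma mixture; protective hits raise ATP signal compared with cytokine alone wells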
cells [7] = format: functional, cell-based
cells [8] = format: functional, cell-based; remark: listed apart in the source
Interleukin-8 [9] = molecular target: T2, Interleukin-8 (Homo sapiens, UniProt P10145); assay: Dose Response confirmation of uHTS small molecule hits for cystic fibrosis induced NFkb Inhibitors in a TNFa-induced IL8 counterscreen.; format: functional; settings: read-out: IC50_Mean
T2 sequence (P10145 whole entry): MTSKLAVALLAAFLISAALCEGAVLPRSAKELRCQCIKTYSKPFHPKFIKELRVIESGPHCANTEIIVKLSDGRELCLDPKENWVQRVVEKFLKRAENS

[10] = molecular target: T3, Heat shock factor protein 1 (Mus musculus, UniProt P38532); assay: decrease of HSF1-responsive luciferase luminescence – cell-based, NIH3T3, dose retest, confirmation (AID 2382); format: functional;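 further: NIH3T3 fibroblasts with HSF1-driven luciferase reporter stressed by proteasome inhibitor MG132; luminescence from HSF1-driven luciferase expression after 8 hours of MG132 stress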
T3 sequence (P38532 whole entry): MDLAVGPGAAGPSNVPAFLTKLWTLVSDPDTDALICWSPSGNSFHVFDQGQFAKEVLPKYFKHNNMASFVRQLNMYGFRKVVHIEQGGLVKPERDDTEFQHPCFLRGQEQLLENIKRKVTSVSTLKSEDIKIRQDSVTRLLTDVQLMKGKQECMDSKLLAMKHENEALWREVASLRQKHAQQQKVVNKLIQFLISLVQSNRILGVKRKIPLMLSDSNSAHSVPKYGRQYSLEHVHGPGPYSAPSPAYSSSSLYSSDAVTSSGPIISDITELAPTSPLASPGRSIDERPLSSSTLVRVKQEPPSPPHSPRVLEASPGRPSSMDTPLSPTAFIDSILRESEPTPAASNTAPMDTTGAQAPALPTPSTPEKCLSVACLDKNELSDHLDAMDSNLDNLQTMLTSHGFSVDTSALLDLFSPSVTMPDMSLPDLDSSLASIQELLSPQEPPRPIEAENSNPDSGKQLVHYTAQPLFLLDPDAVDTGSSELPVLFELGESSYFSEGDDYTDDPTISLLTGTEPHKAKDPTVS

Interleukin-8 [11] = molecular target: T2, Interleukin-8; assay: Dose Response confirmation of uHTS small molecule hits for cystic fibrosis induced NFkb Inhibitors in a PAF-induced IL8 counterscreen.; format: functional; settings: read-out: IC50_Mean
[12] = molecular target: Nuclear receptor subfamily 5 group A member 2 (Homo sapiens, UniProt O00482); format: functional, cell-based;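 further: HEK293T cells transfected with LRH-1 and a StAR promoter luciferase reporter; potency for inhibitors that lower LRH-1 driven reporter light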
[13] = nonselective StAR promoter luciferase inhibitors – cell-based, luminescence, luciferase reporter, counter-screen for LRH-1 inverse agonist project, dose response (AID 651969); format: functional
Steroidogenic factor 1 = Steroidogenic factor 1 (Homo sapiens, UniProt Q13285); assay: Counterscreen for inverse agonists of the liver receptor homolog-1 (LRH-1; NR5A2): Luminescence-based cell-based high throughput dose response assay to identify inverse agonists of the Steroidogenic Factor 1 Nuclear Receptor (SF1; NR5A1).; format: functional
Vero = assay: viability loss in Vero cells – cell-based, plate reader, cherry-pick samples, cytotoxicity control, dose response (AID 687020); format: functional; settings: Chlorocebus sabaeus
[14] = molecular target: Mitochondrial peptide methionine sulfoxide reductase (Bos taurus, UniProt P54149); assay: Absorbance-based biochemical high throughput dose response assay for activators of Methionine sulfoxide reductase A (MsrA).; format: functional
Caspase-6 = Caspase-6 (Homo sapiens, UniProt P55212); assay: inhibition of CASP6 peptide cleavage – biochemical, VEID-R110 fluorescence, cherry-pick, dose response (AID 720632)
Genome polyprotein = Genome polyprotein (dengue virus type 2, UniProt P29990); assay: flavivirus cap methylation enzyme inhibition – biochemical, confirmation dose response, primary screen (AID 588689); format: functional
[15] = molecular target: Matrix metalloproteinase-14 (Homo sapiens, UniProt P50281); assay: Dose Response confirmation of uHTS hits for a small molecule inhibitors of MT1-MMP activation in a fluorescence assay set 2.; format: functional
[16] = molecular target: T4, Replicative DNA helicase DnaB (Mycobacterium tuberculosis, UniProt P9WMR3); assay: DnaB intein splicing inhibitors, dose response, biochemical, cell-free fluorescence (AID 449749); format: functional
T4 sequence (P9WMR3 whole entry): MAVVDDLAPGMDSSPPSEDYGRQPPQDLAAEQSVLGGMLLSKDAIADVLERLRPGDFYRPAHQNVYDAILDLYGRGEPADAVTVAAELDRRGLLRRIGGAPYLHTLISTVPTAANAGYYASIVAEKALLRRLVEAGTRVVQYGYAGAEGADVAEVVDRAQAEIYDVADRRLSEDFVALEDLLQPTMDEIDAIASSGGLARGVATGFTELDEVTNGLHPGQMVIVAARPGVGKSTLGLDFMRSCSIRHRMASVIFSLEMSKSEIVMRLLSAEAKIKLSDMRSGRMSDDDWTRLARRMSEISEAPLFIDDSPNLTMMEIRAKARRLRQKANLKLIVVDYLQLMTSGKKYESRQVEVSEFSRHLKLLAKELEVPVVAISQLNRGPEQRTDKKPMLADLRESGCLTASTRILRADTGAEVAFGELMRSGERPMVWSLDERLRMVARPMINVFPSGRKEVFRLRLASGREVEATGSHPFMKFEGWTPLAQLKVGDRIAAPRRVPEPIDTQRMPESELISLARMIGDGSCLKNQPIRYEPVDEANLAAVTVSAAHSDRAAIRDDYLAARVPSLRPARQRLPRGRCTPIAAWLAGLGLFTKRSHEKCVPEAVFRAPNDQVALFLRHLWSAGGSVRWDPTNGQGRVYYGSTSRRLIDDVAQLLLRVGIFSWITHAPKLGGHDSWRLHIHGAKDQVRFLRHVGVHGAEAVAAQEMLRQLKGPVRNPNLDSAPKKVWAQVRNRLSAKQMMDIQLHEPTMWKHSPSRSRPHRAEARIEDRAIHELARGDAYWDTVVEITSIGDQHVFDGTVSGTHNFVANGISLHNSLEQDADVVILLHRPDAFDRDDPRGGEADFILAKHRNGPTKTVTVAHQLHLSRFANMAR

Protein RecA = molecular target: T5, Protein RecA (Mycobacterium tuberculosis, UniProt P9WHJ3); assay: Fluorescence Cell-Free Homogeneous Dose Retest to Identify Inhibitors of RecA-Intein Splicing Activity. [Related pubchem assays (depositor defined):AID2097, AID2223, AID489010, AID492950]; format: functional
T5 sequence (P9WHJ3 whole entry): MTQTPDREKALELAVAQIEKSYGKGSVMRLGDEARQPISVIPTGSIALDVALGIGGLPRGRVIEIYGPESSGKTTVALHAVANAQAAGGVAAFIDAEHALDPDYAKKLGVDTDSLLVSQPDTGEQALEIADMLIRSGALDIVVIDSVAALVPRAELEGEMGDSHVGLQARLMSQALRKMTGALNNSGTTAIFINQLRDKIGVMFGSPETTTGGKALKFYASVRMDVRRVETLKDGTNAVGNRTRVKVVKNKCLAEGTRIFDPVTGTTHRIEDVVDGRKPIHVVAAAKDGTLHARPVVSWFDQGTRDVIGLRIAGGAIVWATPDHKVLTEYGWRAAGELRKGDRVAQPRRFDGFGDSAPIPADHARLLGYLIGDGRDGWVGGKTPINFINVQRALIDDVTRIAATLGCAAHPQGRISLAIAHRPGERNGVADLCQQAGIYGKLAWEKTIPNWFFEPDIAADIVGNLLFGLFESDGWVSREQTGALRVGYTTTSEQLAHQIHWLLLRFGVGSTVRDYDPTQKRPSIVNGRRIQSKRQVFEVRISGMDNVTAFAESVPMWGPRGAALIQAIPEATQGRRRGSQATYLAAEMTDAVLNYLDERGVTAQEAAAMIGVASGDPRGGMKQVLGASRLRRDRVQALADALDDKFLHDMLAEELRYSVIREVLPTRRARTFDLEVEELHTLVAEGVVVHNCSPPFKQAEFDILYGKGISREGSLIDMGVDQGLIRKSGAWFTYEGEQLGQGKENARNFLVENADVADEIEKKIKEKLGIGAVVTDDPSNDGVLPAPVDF

Cryptococcus neoformans = assay: PubChem AID 686997; format: functional, organism-based

T1 sequence (P11940 whole entry, the tested form may be a part): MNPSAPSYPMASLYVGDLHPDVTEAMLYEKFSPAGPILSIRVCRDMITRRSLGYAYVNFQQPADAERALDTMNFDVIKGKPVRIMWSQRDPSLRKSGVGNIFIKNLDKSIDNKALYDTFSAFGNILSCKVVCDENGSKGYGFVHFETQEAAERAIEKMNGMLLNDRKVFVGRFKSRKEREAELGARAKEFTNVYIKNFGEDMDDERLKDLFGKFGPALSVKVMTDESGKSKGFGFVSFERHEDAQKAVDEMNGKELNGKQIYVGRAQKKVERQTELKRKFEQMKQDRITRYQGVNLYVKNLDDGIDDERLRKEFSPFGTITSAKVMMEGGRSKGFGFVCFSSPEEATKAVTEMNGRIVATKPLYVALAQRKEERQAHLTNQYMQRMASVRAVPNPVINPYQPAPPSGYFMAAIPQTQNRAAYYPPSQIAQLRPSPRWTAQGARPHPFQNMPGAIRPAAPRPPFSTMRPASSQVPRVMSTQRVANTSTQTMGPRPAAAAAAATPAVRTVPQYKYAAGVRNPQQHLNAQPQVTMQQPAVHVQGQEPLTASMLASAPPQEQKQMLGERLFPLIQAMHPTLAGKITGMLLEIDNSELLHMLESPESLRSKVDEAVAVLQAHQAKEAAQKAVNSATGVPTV
Chain of Caspase-6 (P55212 24-179 limits assumed): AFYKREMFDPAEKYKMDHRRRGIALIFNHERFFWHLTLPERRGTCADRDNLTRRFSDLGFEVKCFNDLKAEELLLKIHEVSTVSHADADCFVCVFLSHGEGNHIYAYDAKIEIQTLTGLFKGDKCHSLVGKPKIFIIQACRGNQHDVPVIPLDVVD
Chain of Caspase-6 (P55212 194-293 limits assumed): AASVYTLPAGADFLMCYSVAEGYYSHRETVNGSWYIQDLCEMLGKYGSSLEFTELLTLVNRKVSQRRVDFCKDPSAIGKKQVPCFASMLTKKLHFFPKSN
Chain of Steroidogenic factor 1 (Q13285 whole entry): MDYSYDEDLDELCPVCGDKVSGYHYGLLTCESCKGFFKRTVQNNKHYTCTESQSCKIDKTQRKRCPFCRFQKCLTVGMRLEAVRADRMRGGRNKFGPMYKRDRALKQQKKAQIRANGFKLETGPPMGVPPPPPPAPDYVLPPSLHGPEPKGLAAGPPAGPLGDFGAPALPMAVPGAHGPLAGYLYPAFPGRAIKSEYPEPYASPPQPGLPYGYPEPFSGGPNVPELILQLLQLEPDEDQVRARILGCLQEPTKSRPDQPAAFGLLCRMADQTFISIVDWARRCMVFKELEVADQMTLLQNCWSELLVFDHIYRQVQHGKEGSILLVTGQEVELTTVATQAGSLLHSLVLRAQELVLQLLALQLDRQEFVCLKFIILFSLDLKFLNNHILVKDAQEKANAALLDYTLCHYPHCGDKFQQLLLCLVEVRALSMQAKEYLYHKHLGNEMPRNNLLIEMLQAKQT
Chain of Mitochondrial peptide methionine sulfoxide reductase (P54149 whole entry): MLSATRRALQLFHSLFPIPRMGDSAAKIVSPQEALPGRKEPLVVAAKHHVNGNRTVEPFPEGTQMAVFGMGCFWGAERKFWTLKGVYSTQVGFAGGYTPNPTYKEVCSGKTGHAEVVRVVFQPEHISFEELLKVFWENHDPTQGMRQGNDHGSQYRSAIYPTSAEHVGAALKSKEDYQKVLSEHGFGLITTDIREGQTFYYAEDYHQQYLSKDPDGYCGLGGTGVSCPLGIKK
Chain of Genome polyprotein (P29990 2492-3391 limits assumed): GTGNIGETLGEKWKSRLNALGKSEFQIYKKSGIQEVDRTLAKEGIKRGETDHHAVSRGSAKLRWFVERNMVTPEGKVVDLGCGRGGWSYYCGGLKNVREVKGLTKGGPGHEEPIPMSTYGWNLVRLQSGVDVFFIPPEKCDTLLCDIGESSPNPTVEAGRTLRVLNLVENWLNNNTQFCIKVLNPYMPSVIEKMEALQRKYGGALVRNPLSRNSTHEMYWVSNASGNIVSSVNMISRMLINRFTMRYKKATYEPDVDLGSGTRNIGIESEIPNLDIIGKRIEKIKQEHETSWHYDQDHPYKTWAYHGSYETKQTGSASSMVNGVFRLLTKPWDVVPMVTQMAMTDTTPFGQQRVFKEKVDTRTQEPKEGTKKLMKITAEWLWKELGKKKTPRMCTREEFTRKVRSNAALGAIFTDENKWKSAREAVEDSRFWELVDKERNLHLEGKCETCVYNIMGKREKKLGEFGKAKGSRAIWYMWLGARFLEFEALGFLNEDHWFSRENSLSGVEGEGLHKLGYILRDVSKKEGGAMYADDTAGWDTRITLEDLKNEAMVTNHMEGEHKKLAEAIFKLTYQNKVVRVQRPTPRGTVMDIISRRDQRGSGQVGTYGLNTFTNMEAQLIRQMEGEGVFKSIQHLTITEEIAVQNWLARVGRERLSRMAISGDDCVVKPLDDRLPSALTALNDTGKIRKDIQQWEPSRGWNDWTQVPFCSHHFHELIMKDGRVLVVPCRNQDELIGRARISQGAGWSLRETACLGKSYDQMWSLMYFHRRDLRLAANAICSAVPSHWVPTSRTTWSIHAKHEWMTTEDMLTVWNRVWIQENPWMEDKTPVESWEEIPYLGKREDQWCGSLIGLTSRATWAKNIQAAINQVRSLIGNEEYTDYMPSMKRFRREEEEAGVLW
Chain of Protein S100-A4 (P26447 whole entry, the tested form may be a part): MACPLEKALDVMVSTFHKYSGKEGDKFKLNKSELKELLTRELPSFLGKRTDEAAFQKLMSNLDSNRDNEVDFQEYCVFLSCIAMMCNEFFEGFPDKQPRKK
Chain of Nuclear receptor subfamily 5 group A member 2 (O00482 whole entry): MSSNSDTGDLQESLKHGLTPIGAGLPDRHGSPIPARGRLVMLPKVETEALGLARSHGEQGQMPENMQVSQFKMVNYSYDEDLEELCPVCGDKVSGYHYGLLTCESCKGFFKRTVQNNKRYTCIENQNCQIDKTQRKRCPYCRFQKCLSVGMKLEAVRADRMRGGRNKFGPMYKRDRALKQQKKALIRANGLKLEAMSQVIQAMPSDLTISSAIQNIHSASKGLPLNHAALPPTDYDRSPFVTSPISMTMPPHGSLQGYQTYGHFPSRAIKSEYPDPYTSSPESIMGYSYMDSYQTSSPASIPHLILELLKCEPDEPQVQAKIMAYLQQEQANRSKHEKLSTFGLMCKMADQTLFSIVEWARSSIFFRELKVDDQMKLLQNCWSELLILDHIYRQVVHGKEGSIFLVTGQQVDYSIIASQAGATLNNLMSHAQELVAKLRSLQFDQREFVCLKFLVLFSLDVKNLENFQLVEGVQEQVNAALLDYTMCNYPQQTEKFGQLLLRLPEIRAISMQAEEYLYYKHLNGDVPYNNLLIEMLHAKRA

Cc1cc2ccccc2n1CCNC(=O)c1ccc(Br)o1
AC50 (Protein S100-A4): 6.02 µM (active)
IC50 [1]: > 66 µM (inactive)
IC50 [2]: > 66 µM (inactive)

COc1ccc(S(=O)(=O)N2CCOCC2)cc1NC(=O)COc1ccc(C)cc1
AC50 [3]: 28.1 µM (active)
AC50 [4]: 8.06 µM (active)
AC50 [5]: 8.95 µM (active)

CCOC(=O)N1CCN(S(=O)(=O)c2ccc(C(=O)NNc3nc4c(C)cc(C)cc4s3)cc2)CC1
IC50 [6]: 24.6 µM (inactive)
AC50 (INS1): 4.46 µM (active)
EC50 (cells [7]): > 350 µM (not active)
EC50 (cells [8]): 14.5 µM (active)

CCN(c1ccc(OC)cc1)c1[nH]cnc2ncnc1-2
IC50 (Interleukin-8 [9]): > 79 µM (inactive)
EC50 [10]: 21.8 µM (active)
IC50 (Interleukin-8 [11]): 14.5 µM (inactive)

COC(=O)c1ccc(NC(=O)CSc2nc3ccc[nH]c-3n2)cc1
IC50 [12]: 35.9 µM (inactive)
IC50 [13]: 35.9 µM (inactive)
IC50 (Steroidogenic factor 1): 0.978 µM (active)

CC(=O)Nc1cccc(C(=O)OC(C)C(=O)NC(=O)NC2CCCCC2)c1 (centres undefined)
AC50 (Vero): 23.6 µM (active)

C[n+]1c2ccccc2nc2ccc(NCCO)cc21
EC50 [14]: 3.53 µM (active)
AC50 (Caspase-6): 3.35 µM (active)
IC50 (Genome polyprotein): 18.6 µM (active)
IC50 [15]: 10.5 µM (active)
AC50 [16]: 19.9 µM (active)
EC50 (Protein RecA): 2.38 µM (active)

COC(=O)C1=C(C)N(Cc2ccc(F)cc2)C(=S)NC1c1ccccc1 (centres undefined)
AC50 (Cryptococcus neoformans): > 76 µM (inactive)
